Results from ChEMBL document CHEMBL3046860, “Photosynthetic Electron Transport Inhibitory and Herbicidal Activities of 2-(Fluorinated methyl-4-benzylamino-6-methyl)-1, 3, 5-triazines” (J Pestic Sci, 2000).

How the values were obtained:
[1] = target: Photosystem II D1 protein (psbA) (Spinacia oleracea); assay: Inhibition of photosynthetic electron transport activity in Spinacia oleracea thylakoids assessed as inhibition of oxygen release
[2] = system: Rotala indica; assay: Pre-emergence herbicidal activity against Rotala indica at 400 g a.i./10a measured after 3 weeks by paddy application test; assay type: functional
[3] = system: Persicaria longiseta; assay: Post-emergence herbicidal activity against Persicaria longiseta at 400 g a.i./10a measured after 3 weeks by foliar application test; assay type: functional
[4] = system: Digitaria ciliaris; assay: Post-emergence herbicidal activity against Digitaria ciliaris at 400 g a.i./10a measured after 3 weeks by foliar application test; assay type: functional
[5] = system: Digitaria ciliaris; assay: Pre-emergence herbicidal activity against Digitaria ciliaris at 400 g a.i./10a measured after 3 weeks by soil application test; assay type: functional
[6] = system: Pontederia vaginalis; assay: Pre-emergence herbicidal activity against Monochoria vaginalis at 400 g a.i./10a measured after 3 weeks by paddy application test; assay type: functional
[7] = system: Chenopodium album; assay: Post-emergence herbicidal activity against Chenopodium album at 400 g a.i./10a measured after 3 weeks by foliar application test; assay type: functional
[8] = system: Schoenoplectiella juncoides; assay: Pre-emergence herbicidal activity against Schoenoplectiella juncoides var. Hotarui Ohwi at 400 g a.i./10a measured after 3 weeks by paddy application test; assay type: functional
[9] = system: Amaranthus blitum subsp. oleraceus; assay: Pre-emergence herbicidal activity against Amaranthus blitum subsp. Oleraceus at 400 g a.i./10a measured after 3 weeks by soil application test; assay type: functional
[10] = system: Persicaria longiseta; assay: Pre-emergence herbicidal activity against Persicaria longiseta at 400 g a.i./10a measured after 3 weeks by soil application test; assay type: functional
[11] = system: Echinochloa crus-galli; assay: Pre-emergence herbicidal activity against Echinochloa crus-galli var. crus-galli at 400 g a.i./10a measured after 3 weeks by soil application test; assay type: functional
[12] = system: Echinochloa crus-galli; assay: Post-emergence herbicidal activity against Echinochloa crus-galli var. crus-galli at 400 g a.i./10a measured after 3 weeks by foliar application test; assay type: functional
[13] = system: Echinochloa oryzicola; assay: Pre-emergence herbicidal activity against Echinochloa oryzicola at 400 g a.i./10a measured after 3 weeks by paddy application test; assay type: functional
[14] = system: Chenopodium album; assay: Pre-emergence herbicidal activity against Chenopodium album at 400 g a.i./10a measured after 3 weeks by soil application test; assay type: functional
[15] = system: Echinochloa crus-galli; assay: Pre-emergence herbicidal activity against Echinochloa crus-galli var. crus-galli at 100 g a.i./10a measured after 3 weeks by soil application test; assay type: functional
[16] = system: Chenopodium album; assay: Pre-emergence herbicidal activity against Chenopodium album at 100 g a.i./10a measured after 3 weeks by soil application test; assay type: functional
[17] = system: Digitaria ciliaris; assay: Pre-emergence herbicidal activity against Digitaria ciliaris at 100 g a.i./10a measured after 3 weeks by soil application test; assay type: functional
[18] = system: Amaranthus blitum subsp. oleraceus; assay: Pre-emergence herbicidal activity against Amaranthus blitum subsp. Oleraceus at 100 g a.i./10a measured after 3 weeks by soil application test; assay type: functional
[19] = system: Echinochloa oryzicola; assay: Pre-emergence herbicidal activity against Echinochloa oryzicola at 800 g a.i./10a measured after 3 weeks by paddy application test; assay type: functional
[20] = system: Chenopodium album; assay: Pre-emergence herbicidal activity against Chenopodium album at 800 g a.i./10a measured after 3 weeks by soil application test; assay type: functional
[21] = system: Schoenoplectiella juncoides; assay: Pre-emergence herbicidal activity against Schoenoplectiella juncoides var. Hotarui Ohwi at 800 g a.i./10a measured after 3 weeks by paddy application test; assay type: functional
[22] = system: Pontederia vaginalis; assay: Pre-emergence herbicidal activity against Monochoria vaginalis at 800 g a.i./10a measured after 3 weeks by paddy application test; assay type: functional
[23] = system: Echinochloa crus-galli; assay: Pre-emergence herbicidal activity against Echinochloa crus-galli var. crus-galli at 800 g a.i./10a measured after 3 weeks by soil application test; assay type: functional
[24] = system: Digitaria ciliaris; assay: Pre-emergence herbicidal activity against Digitaria ciliaris at 800 g a.i./10a measured after 3 weeks by soil application test; assay type: functional
[25] = system: Rotala indica; assay: Pre-emergence herbicidal activity against Rotala indica at 800 g a.i./10a measured after 3 weeks by paddy application test; assay type: functional

Structure (SMILES) | Activity [2] [%] | Activity [3] [%] | Activity [4] [%] | Activity [5] [%] | Activity [6] [%] | Activity [7] [%] | Activity [8] [%] | Activity [9] [%] | Activity [10] [%] | Activity [11] [%] | Activity [12] [%] | Activity [13] [%] | Activity [14] [%] | also measured
Cc1nc(NCc2ccc([N+](=O)[O-])cc2)nc(C(F)(F)F)n1 | – | – | – | – | – | – | – | – | – | – | – | – | – | pI50 [1]: 7.16
Cc1nc(CF)nc(NCc2ccc(Br)cc2)n1 | 6 | 6 | 5 | 4 | 5 | 6 | 5 | 5 | 5 | 4 | 4 | 5 | 5 | –
Cc1nc(NCc2ccc(Br)cc2)nc(C(F)(F)F)n1 | 5 | 6 | 6 | 5 | 5 | 6 | 6 | 5 | – | 5 | 4 | 4 | 5 | –
Cc1nc(NCc2ccccc2)nc(C(F)F)n1 | 5 | 6 | 4 | 4 | 6 | 6 | 5 | 4 | 6 | 5 | 3 | 4 | 6 | –
Cc1nc(NCc2cccc(Cl)c2)nc(C(F)(F)F)n1 | – | – | – | – | – | – | – | – | – | – | – | – | – | pI50 [1]: 7.21
Cc1ccc(CNc2nc(C)nc(C(F)(F)F)n2)cc1 | – | – | – | – | – | – | – | – | – | – | – | – | – | pI50 [1]: 6.74
Cc1nc(NCc2ccccc2)nc(C(F)(F)F)n1 | 4 | – | 4 | 3 | 6 | 6 | 0 | 4 | – | 2 | 3 | 3 | 6 | –
Cc1nc(CF)nc(NCc2ccc(Cl)cc2)n1 | 6 | 6 | 4 | 3 | 5 | 6 | 4 | 4 | 4 | 3 | 4 | 5 | 5 | –
Cc1nc(NCc2ccc(Cl)cc2)nc(C(F)F)n1 | 6 | 6 | 6 | 5 | 6 | 6 | 6 | 5 | 6 | 4 | 6 | 5 | 6 | –
Cc1nc(NCc2ccc([N+](=O)[O-])cc2)nc(C(F)F)n1 | 6 | 6 | 5 | 4 | 5 | 6 | 5 | 5 | 5 | 4 | 4 | 5 | 5 | –
Cc1nc(NCc2ccc(Br)cc2)nc(C(F)F)n1 | 6 | 6 | 6 | 5 | 6 | 6 | 6 | 5 | 6 | 4 | 6 | 6 | 6 | –
CCNc1nc(Cl)nc(NCC)n1 [SIMAZINE] | – | – | – | – | – | – | – | – | – | – | – | – | – | Activity [15]: 2%; Activity [16]: 2%; Activity [17]: 3%; Activity [18]: 5%
Cc1nc(CF)nc(NCc2ccccc2)n1 | 0 | 4 | 1 | 1 | 0 | 6 | 0 | 4 | 2 | 1 | 0 | 0 | 5 | –
Cc1nc(NCc2ccc(Cl)cc2)nc(C(F)(F)F)n1 | 6 | 6 | 6 | 5 | 6 | 6 | 6 | 6 | – | 3 | 4 | 6 | 5 | –
Cc1ccc(CNc2nc(C)nc(C(F)F)n2)cc1 | 5 | 6 | 4 | 4 | 5 | 6 | 5 | 4 | 5 | 3 | 4 | 4 | 5 | –
Cc1nc(NCc2cccc(Cl)c2)nc(C(F)F)n1 | 5 | 6 | 4 | 4 | 5 | 6 | 5 | 4 | 5 | 4 | 3 | 4 | 5 | –
Cc1nc(C)nc(NCc2ccccc2)n1 | – | 0 | 0 | – | – | 0 | – | – | – | – | 0 | – | – | Activity [19]: 3%; Activity [20]: 0%; Activity [21]: 0%; Activity [22]: 6%; Activity [23]: 0%; Activity [24]: 0%; Activity [25]: 1%
